# Patent US20260034192A1 (University of Saskatchewan, priority 2022, published 2026)
# Values joined by “and” are separate entries in the source; they are usually repeats but may differ in a detail not shown here. Identical values can stand only once. Marks after values point to notes of the source that are not given here. Ends that are not written are not given here.
# What was measured:
# Assay type in all cases: in vivo, cattle
# mature Angus heifers = assay: Cetrorelix versus estradiol benzoate synchronization protocol with AI, random day of cycle (Example 7)
# Method: This experiment was conducted on 38 mature Angus heifers at the Federal University of Santa Maria in Brazil. Heifers on a random day of the cycle (defined as Day 0) were divided into 2 groups (n=19 per group) and treated with a single i/m injection of 3 mg cetrorelix or with estradiol benzoate (1 mg i/m). A progesterone-releasing device (CIDR) was placed in the vagina of heifers at this time. Eight days after the cetrorelix or estradiol treatments, heifers were given 500 ug cloprostenol (prostaglandin analog) i/m injections and the CIDR device was removed. […] Heifers were given 250 ug gonadorelin acetate (GnRH analog) i/m injection at the time of artificial insemination. […] Pregnancy diagnosis was done 29-30 days after artificial insemination.
# [1] = tested on: Brahman x Angus cross beef post-partum cows; assay: Field trial of fixed-time AI after cetrorelix versus estradiol protocol (Example 8)
# Method: This field trial was conducted by a faculty member of the Federal University of Santa Maria at a client beef farm in Brazil in December 2022. A total of 216 Brahman x Angus cross beef post-partum cows were used for this experiment. Cows were divided into two treatment groups ([…]) and were either given cetrorelix 3 mg i/m or estradiol benzoate on a random day of the cycle (defined as Day 0). An intravaginal progesterone device (CIDR) was placed in all cows on Day 0. The CIDR devices were removed on Day 8 and animals were given prostaglandin F2a analog and equine choriogonadotropin (eCG). Fixed-time artificial insemination was done 54 hrs after CIDR removal and animals were given GnRH at this time. Pregnancy diagnosis was performed on Day 30 after artificial insemination. Transrectal ultrasound examinations were performed on Day 0, Day 8, Day 10 and Day 40.
# [2] = tested on: Hereford crossbred heifers; assay: Cetrorelix pre-treatment before kisspeptin-10 in low-progesterone heifer model (Example 1); conditions: for Ovulation rate after treatments: number of heifer/total: extant dominant follicle
# Method: Methods: The human Kisspeptin-10 (hKP-10) peptide (YNWNSFGLRF-NH2; SEQ ID NO: 1) was custom synthetized at >95% of purity (MW: 1318.44 g/mol) by GenScript USA Inc, Piscataway, NJ, USA. The sequence is based on the predicted C-terminal region (112-121-NH2) of human metastin (Gen Bank accession #AY117143) and has been previously used in cattle. The peptide was previously tested for solubility and was dissolved in ultrapure water at 10 mg/mL.
# The heifers were maintained in outdoor pens at the University of Saskatchewan Goodale Research Farm (52° north and 106° west). Heifers were fed barley silage and had hay and water ad libitum. A mineral salt block was available to heifers throughout the study period. All procedures were performed in accordance with Canadian Council on Animal Care and were approved by the University of Saskatchewan Protocol Review Committee.
# Immediately after ultrasound examination, heifers were given PGF2a twice at an interval of 12-hours. The low-progesterone bovine model described previously (Leonardi et al. 2019) was used to test the hypothesis. Briefly, the ovaries were examined daily by ultrasonography to detect ovulation. Three days after ovulation, follicles ≥5 mm in diameter in both ovaries were ablated by transvaginal ultrasound-guided follicle aspiration, inducing the emergence of new follicular wave 1.5 days after the procedure (Bergfelt et al. 1994). After follicular ablation, a progesterone device was placed in the vagina (CIDR; Zoetis). The day of wave emergence (Day 0) was defined as the day when the follicle of wave was first recorded (4 to 5 mm in diameter) with concurrent increase in diameter. Heifers were given PGF2α im on Days 3.5 and 4 (i.e., 8 and 8.5 days after ovulation) to cause luteolysis, however, the CIDR devices were left in place until Day 12 to maintain a low-progesterone milieu sufficient to prevent spontaneous ovulation. On Day 6, an indwelling jugular catheter was placed as described (Bergfelt et al. 1997) and heifers were assigned randomly to three groups (n=5 per group): 1) 3 iv doses of 15 mg human kisspeptin-10 at 1 h intervals (Kp10 group), 2) pretreatment with single im dose of Cetrorelix acetate (20 μg/Kg of body weight, GnRH antagonist—Sigma #C5249 diluted in 5% D-Manitol w/v, Sigma #M4125) followed 3 h later with 3 iv doses of 15 mg human kisspeptin-10 at 1 h intervals (Cetrorelix group), or 3) 3 iv doses of normal saline at 1 h intervals (Control group). Following treatment (on Day 6), ovarian ultrasound examinations were performed daily until the end of the experiment to detect ovulation of the extant dominant follicle (i.e., dominant follicle present at the time of treatment) or of the dominant follicle originating from a subsequent wave. The progesterone device was withdrawn on Day 12 (i.e., thirteen days after insertion) and ultrasound examinations were continued until ovulation was detected.
# Blood samples and hormone assays: Serial blood samples on the day of treatment were collected at 15 minute intervals from −30 to 150 min (0 min=time of first hKP-10 or saline injection) using the indwelling jugular catheter. All blood samples were collected in heparinized tubes (Vacutainer, BD, Franklin Lakes NJ, USA). Immediately after sampling, tubes were centrifuged at 1,500×g for 15 min, and plasma was separated and stored at −20° C.
# The plasma samples from both experiments were analyzed for LH and progesterone concentration at the University of Wisconsin (Madison, WI, USA) in Dr O. J. Ginther's Research Laboratory. Plasma LH concentrations were measured with a validated radioimmunoassay for cattle (Bolt et al. 1990) with modifications as reported Ginther et al. 1999). Briefly, LH concentrations were measured in duplicate using USDA-bLH-B-6 for ^125I-iodination and for preparing reference standards, and USDA-309-684P as the primary antibody (National Hormone and Pituitary Program, Torrance, CA, USA). […]
# [3] = 3 mg cetrorelix or 1 mg estradiol benzoate i/m
# [4] = 30 days after fixed-time artificial insemination
# [5] = Day 6 of wave, low progesterone, Kp10 3 x 15 mg iv, Cetrorelix 20 μg/Kg im 3 h before Kp10
# [6] = Kp10 3 x 15 mg iv, Cetrorelix 20 μg/Kg im 3 h before Kp10
compound,measurement,setting,value
"C[C@]12CC[C@@H]3c4ccc(OC(=O)c5ccccc5)cc4CC[C@H]3[C@@H]1CC[C@@H]2O [Estradiol benzoate, estradiol benzoate]",Pregnant/Double AI,mature Angus heifers; [3],7/12
same,"Pregnant/Double AI, percent",mature Angus heifers; [3],58%
same,Pregnant/Single AI,mature Angus heifers; [3],6/7
same,"Pregnant/Single AI, percent",mature Angus heifers; [3],86%
same,"Pregnant/Total, percent (pregnancy rate)","mature Angus heifers; random day of cycle, 3 mg cetrorelix i/m or 1 mg estradiol benzoate i/m, CIDR 8 days",68%
same,Pregnant/Total,"mature Angus heifers; random day of cycle, 3 mg cetrorelix i/m or 1 mg estradiol benzoate i/m, CIDR 8 days, PGF, GnRH at AI",13/19
same,Conception rate: Percent,[1]; [4],45.6%
same,Conception rate: Pregnant/AI,[1]; [4],48/106*
same,Conception rate: Percent,"[1]; 30 days after fixed-time artificial insemination, listed as estradiol",45.6%
same,Size of the dominant follicle on Day 8 (at PGF),"[1]; cetrorelix 3 mg i/m or estradiol benzoate on Day 0, CIDR removal Day 8, in mm",8.60 ± 0.39
same,Size of the dominant follicle on Day 10 (at AI),"[1]; cetrorelix 3 mg i/m or estradiol benzoate on Day 0, in mm",11.38 ± 0.56
Kp10: human Kisspeptin-10 (hKP-10) peptide YNWNSFGLRF-NH2; SEQ ID NO: 1 (listed as Homo sapiens),Interval between treatment and ovulation (hours after treatment),"[2]; Day 6 of wave, low progesterone, Kp10 3 x 15 mg iv",48 h
same,Dominant follicle diameter 24 h after treatment,[2]; [5],12.24 ± 0.89 mm
same,Dominant follicle diameter 48 h after treatment,[2]; [5],16.51 mm
same,Dominant follicle diameter at time of treatment,[2]; [5],11.34 ± 0.91 mm
same,Emergence of a new follicular wave after treatment,"[2]; Day 6 of wave, low progesterone, Kp10 3 x 15 mg iv, Cetrorelix single im 20 μg/Kg 3 h before Kp10",2.75 ± 0.75 days
same,Day of ovulation of new dominant follicles after CIDR removal (Day 12),[2]; Day of follicular wave,15
same,Heifers in which a new wave emergence occurred,[2]; [6],4 of 5
same,Number of ovulations after CIDR removal on Day 12: Extant dominant follicle,[2]; [6],1/1
same,Number of ovulations after CIDR removal on Day 12: New dominant follicle,[2]; [6],4/4
same,Plasma LH concentration / kisspeptin-induced LH surge,[2]; [6],higher plasma LH concentrations
same,Ovulation rate after treatments: number of heifer/total,[2]; [5],4 of 5 and 4/5^a
same,Ovulation rate after treatments: number of heifer/total,"[2]; Day 6 of wave, low progesterone, Kp10 3 x 15 mg iv, Cetrorelix 20 μg/Kg im 3 h before Kp10, listed as kisspeptin",4 out of 5
